Results on ten compounds are retold here after PMC6585621 (Clinical Pharmacology and Therapeutics, 2018).

Where two headings read alike, the source gives them in different places.

In general, Cmax refers to the maximum level reached in the sampled fluid or tissue. The AUC is the area under the concentration-time curve, a measure of exposure. Usually half-life stands for how long it takes for the measured level to halve.

Series [1] has as its system carboxylesterase 1 (CES1). Conditions: cited from earlier work.
Series [2] can be described thus: Pharmacokinetics of clopidogrel and its metabolites with and without ritonavir. The series is classed as in vivo, human. Conditions: for AUC0‐4h, clopidogrel and ritonavir phase to clopidogrel phase ratio / AUC0‐∞, clopidogrel and ritonavir phase to clopidogrel phase ratio / C max, clopidogrel and ritonavir phase to clopidogrel phase ratio / t ½, clopidogrel and ritonavir phase to clopidogrel phase ratio: geometric mean ratio (90% CI); for AUC / half-life / C max / AUC0‐4h / AUC0‐∞ / t ½ / t max: after clopidogrel 300 mg oral; for AUC / half-life / C max / AUC0‐4h / AUC0‐∞ / t ½: geometric mean (geometric CV); for half-life: t ½; for t max: median (range).

In the next series the test system is platelet aggregation. The settings on record: clopidogrel 300 mg, arithmetic mean (SD).
Series [3] in a line: Pharmacokinetics of ritonavir with and without clopidogrel. The series is classed as in vivo, human.
The conditions of series [4]: cited from earlier work.
Series [5] is classed as in vivo, human. Conditions: for t max / M1:dasabuvir AUC0‐23h ratio / M1:dasabuvir AUC0‐∞ ratio / t ½: after dasabuvir 250 mg oral; for t max: median (range); for M1:dasabuvir AUC0‐23h ratio / M1:dasabuvir AUC0‐∞ ratio / t ½: geometric mean (geometric CV); for effect of ritonavir on pharmacokinetics compared to pretreatment with placebo: ritonavir 100 mg twice daily.
For series [6] the following is noted: in humans; cited from earlier work.
For series [7] the following is noted: cited from earlier work. This is another data set of the same source.
A further series concerns CYP3A4. Conditions: in the absence of ritonavir; cited from earlier work.
Setting [8] is: clopidogrel and ritonavir phase.
Where [9] appears, read: clopidogrel and ritonavir phase (ritonavir 100 mg twice daily).

`COC(=O)[C@H](c1ccccc1Cl)N1CCc2sccc2C1` [Clopidogrel, clopidogrel, reference compound]: the “fraction hydrolyzed by CES1 to inactive carboxylic acid metabolite” value in series [1] is reported as “About 90%”. Also, the “AUC0‐4h, clopidogrel and ritonavir phase to clopidogrel phase ratio” value (shortened to “AUC0‐4h … to clopidogrel phase ratio”) in series [2] was 0.75 (0.40–1.44). Besides, the “AUC0‐∞, clopidogrel and ritonavir phase to clopidogrel phase ratio” value (“AUC0‐∞ … to clopidogrel phase ratio” below) in [2] is reported as 0.75 (0.39–1.43). Further, the “C max, clopidogrel and ritonavir phase to clopidogrel phase ratio” value (“C max … to clopidogrel phase ratio” for short) in [2] is given as 0.79 (0.40–1.57). Also, the “t ½, clopidogrel and ritonavir phase to clopidogrel phase ratio” value in series [2] is on record as 0.89 (0.72–1.11). In addition, the Cmax in series [2] (human, plasma, po, 300 mg) was 4.49 ng/mL. In addition, the AUC in [2] (human, plasma, po, 300 mg, AUC0‐4h, clopidogrel and ritonavir phase) was 6.44 ng·h/mL; in series [2] (human, plasma, po, 300 mg, AUC0‐4h, clopidogrel phase) it was 8.53 ng·h/mL; in [2] (human, plasma, po, 300 mg, AUC0‐∞, clopidogrel and ritonavir phase), 8.14 ng·h/mL; in series [2] (human, plasma, po, 300 mg, AUC0‐∞, clopidogrel phase), 10.8 ng·h/mL. The half-life in series [2] (human, plasma, po, 300 mg, clopidogrel and ritonavir phase) is 1.77 h; in series [2] (human, plasma, po, 300 mg, clopidogrel phase) it was 1.98 h. Also, the “Inhibition of platelet aggregation, average inhibition at 0‐24 h” value with platelet aggregation (setting [8]) is listed as 31 (28) %; in the series on platelet aggregation (clopidogrel phase), 51 (24) %. The “Inhibition of platelet aggregation, maximal inhibition” value is listed as 40 (29) % in the series with platelet aggregation (setting [8]) and 60 (23) % in the series with platelet aggregation (clopidogrel phase).
On to `CC(C)c1nc(CN(C)C(=O)N[C@H](C(=O)N[C@@H](Cc2ccccc2)C[C@H](O)[C@H](Cc2ccccc2)NC(=O)OCc2cncs2)C(C)C)cs1` [Ritonavir, ritonavir], for which the t max in series [3] (clopidogrel and ritonavir phase, median (range)) stood at 3.0 h; in series [3] (human, plasma, oral), 1.75 h. In addition, the “t ½ during coadministration of clopidogrel as % of that in the ritonavir phase” value in [3] (geometric mean) is on record as 112%.
On to `CC(C)(O)c1ccccc1CC[C@@H](SCC1(CC(=O)O)CC1)c1cccc(/C=C/c2ccc3ccc(Cl)cc3n2)c1` [montelukast], for which the “increase of AUC of CYP2C8 substrate by gemfibrozil” value (“increase of AUC of CYP2C8 substrate” for short) in [4] was around 4.5 fold.
Turning to `CCOc1cc(CC(=O)N[C@@H](CC(C)C)c2ccccc2N2CCCCC2)ccc1C(=O)O` [repaglinide], the “increase of AUC of CYP2C8 substrate” value in series [4] was around 8 fold.
For the compound `O=C(O)[C@H](c1ccccc1Cl)N1CCc2sccc2C1` [Clopidogrel carboxylic acid, clopidogrel carboxylic acid], the C max in series [2] (setting [9]) is recorded as 12,300 (34) ng/mL. Besides, in series [2] (setting [8]), the “AUC0‐4h” value is reported as 27,800 (37) ng·h/mL, the “AUC0‐∞” value is reported as 41,600 (37) ng·h/mL, the “t ½” value is 2.46 (12) h and the t max was 0.92 (0.92–1.5) h. In series [2] (clopidogrel phase), the “AUC0‐4h” value is 26,800 (29) ng·h/mL, the “AUC0‐∞” value is 44,300 (26) ng·h/mL, the C max was 12,200 (22) ng/mL and the “t ½” value is given as 2.98 (21) h. In addition, the t max in series [2] (clopidogrel phase) is recorded as 0.92 (0.92–1.5) h. Moreover, in series [2], the “AUC0‐4h … to clopidogrel phase ratio” value is given as 1.04 (0.91–1.18); the “AUC0‐∞ … to clopidogrel phase ratio” value is 0.94 (0.80–1.10); the “C max … to clopidogrel phase ratio” value is listed as 1.01 (0.89–1.15); the “t ½, clopidogrel and ritonavir phase to clopidogrel phase ratio” value is on record as 0.83 (0.72–0.95); P = 0.03.
Regarding `COc1c(-c2ccc3cc(NS(C)(=O)=O)ccc3c2)cc(-n2ccc(=O)[nH]c2=O)cc1C(C)(C)CO` [M1], the t max in series [5] (setting [8]) was 4.0 (3.0–23) h. Further, in series [5] (clopidogrel phase), the “M1:dasabuvir AUC0‐23h ratio” value was 0.0102 (42), the “M1:dasabuvir AUC0‐∞ ratio” value was 0.0135 (32), the “t ½” value is recorded as 17.3 (23) h and the t max is listed as 4.0 (3.0–23) h. Moreover, in [5] (placebo phase), the “M1:dasabuvir AUC0‐23h ratio” value is on record as 0.0795 (28), the “M1:dasabuvir AUC0‐∞ ratio” value is recorded as 0.0774 (29), the “t ½” value is listed as 7.87 (32) h and the t max is reported as 4.0 (2.0–4.0) h. Moreover, in series [5] (ritonavir phase), the “M1:dasabuvir AUC0‐23h ratio” value was 0.0888 (35), the “M1:dasabuvir AUC0‐∞ ratio” value was 0.0786 (38), the “t ½” value was 7.35 (25) h and the t max was 4.0 (3.0–6.0) h. In addition, in series [5] (geometric mean), the “AUC0‐23h in clopidogrel phase as % of that during placebo phase” value was determined as 41%, the “AUC0‐23h in clopidogrel–ritonavir phase as % of that during the ritonavir phase” value is on record as 48%, the “C max in clopidogrel phase as % of that in the placebo phase” value is on record as 20% and the “C max in clopidogrel–ritonavir phase as % of that during the ritonavir phase” value is 22%. Also, the “M1:dasabuvir AUC0‐∞ ratio in clopidogrel phase as % of that with placebo” value in series [5] (geometric mean) is on record as 17%. Also, in [5] (geometric mean ratio (90% CI)), the “AUC0‐23h, clopidogrel and ritonavir phase to ritonavir phase ratio” value was 0.48 (0.32–0.71) P = 0.002; the “AUC0‐23h, clopidogrel phase to placebo phase ratio” value was 0.41 (0.26–0.65) P = 0.001; the “C max, clopidogrel and ritonavir phase to ritonavir phase ratio” value is on record as 0.22 (0.13–0.36) P = 0.00002; the “C max, clopidogrel phase to placebo phase ratio” value is 0.20 (0.11–0.36) P = 0.00006. For the same compound, in [5] (geometric mean ratio (90% CI)), the “M1:dasabuvir AUC0‐23h ratio, clopidogrel and ritonavir phase to ritonavir phase ratio” value is reported as 0.14 (0.12–0.17) P = 5·10^−11; the “M1:dasabuvir AUC0‐23h ratio, clopidogrel phase to placebo phase ratio” value was 0.13 (0.11–0.15) P = 5·10^−12; the “M1:dasabuvir AUC0‐∞ ratio, clopidogrel and ritonavir phase to ritonavir phase ratio” value is recorded as 0.20 (0.17–0.25) P = 5·10^−10; the “M1:dasabuvir AUC0‐∞ ratio, clopidogrel phase to placebo phase ratio” value is 0.17 (0.16–0.19) P = 2·10^−14. For the same compound, in series [5] (geometric mean ratio (90% CI)), the “t ½, clopidogrel and ritonavir phase to ritonavir phase ratio” value is reported as 1.92 (1.57–2.34) P = 0.00001; the “t ½, clopidogrel phase to placebo phase ratio” value is given as 2.20 (1.72–2.81) P = 0.00001. The “effect of ritonavir on pharmacokinetics compared to pretreatment with placebo” value in series [5] is recorded as “did not cause significant changes”.
As for `O=C(O)C[C@H](O)C[C@H](O)/C=C/c1c(C2CC2)nc2ccccc2c1-c1ccc(F)cc1` [pitavastatin], in series [6], the “effect of clopidogrel on pharmacokinetics” value is “not affected”.
`O=C(O)[C@H]1O[C@@H](OC(=O)[C@H](c2ccccc2Cl)N2CCc3sccc3C2)[C@H](O)[C@@H](O)[C@@H]1O` [Clopidogrel acyl‐β‐D‐glucuronide, clopidogrel acyl‐β‐D‐glucuronide]: the C max in [2] (setting [9]) was 1,610 (43) ng/mL. Further, in series [2] (setting [8]), the “AUC0‐4h” value is 4,030 (45) ng·h/mL, the “AUC0‐∞” value is reported as 6,430 (46) ng·h/mL, the “t ½” value is recorded as 2.02 (8.5) h and the t max is listed as 1.5 (1.5–3.0) h. Further, in series [2] (clopidogrel phase), the “AUC0‐4h” value is reported as 3,630 (56) ng·h/mL, the “AUC0‐∞” value was 6,840 (53) ng·h/mL, the C max is 1,420 (57) ng/mL and the “t ½” value is listed as 2.83 (19) h. The t max in series [2] (clopidogrel phase) is 1.75 (0.92–2.0) h. In series [2], the “AUC0‐4h … to clopidogrel phase ratio” value was 1.11 (0.86–1.43); the “AUC0‐∞ … to clopidogrel phase ratio” value is reported as 0.94 (0.71–1.23); the “C max … to clopidogrel phase ratio” value was 1.13 (0.86–1.47); the “t ½, clopidogrel and ritonavir phase to clopidogrel phase ratio” value is reported as 0.71 (0.63–0.81); P = 0.0007.
In the case of `COc1c(-c2ccc3cc(NS(C)(=O)=O)ccc3c2)cc(-n2ccc(=O)[nH]c2=O)cc1C(C)(C)C` [Dasabuvir, dasabuvir, reference compound], the “highest individual increase in AUC0‐∞, clopidogrel phase vs placebo phase” value in [5] (12 subjects) is listed as above 10 fold. In addition, the “range of individual increases of AUC0‐∞ by clopidogrel compared with placebo” value in [5] (12 subjects, clopidogrel phase vs placebo phase) is 2.0–10.1 fold. Further, the “t ½” value in series [5] (ritonavir phase) is reported as 8.22 (25) h. For the same compound, in [5] (geometric mean), the “AUC0‐∞ in clopidogrel phase as % of that during placebo” value came to 467%, the “AUC0‐∞ in clopidogrel–ritonavir phase as % of that during the ritonavir phase” value came to 389% and the “C max in clopidogrel–ritonavir phase as % of that during the ritonavir phase” value was 182%. In series [5] (geometric mean ratio (90% CI)), the “AUC0‐23h, clopidogrel and ritonavir phase to ritonavir phase ratio” value is on record as 3.13 (2.17–4.52) P = 0.00002; the “AUC0‐∞, clopidogrel phase to placebo phase ratio” value was 4.67 (3.23–6.74) P = 8·10^−7; the “C max, clopidogrel and ritonavir phase to ritonavir phase ratio” value is on record as 1.82 (1.27–2.61) P = 0.004; the “C max, clopidogrel phase to placebo phase ratio” value is 1.63 (1.03–2.57) P = 0.07. Moreover, in series [5] (geometric mean ratio (90% CI)), the “t ½, clopidogrel and ritonavir phase to ritonavir phase ratio” value is on record as 1.40 (1.14–1.73) P = 0.005; the “t ½, clopidogrel phase to placebo phase ratio” value was 1.84 (1.59–2.13) P = 1·10^−6. Also, in series [5] (implied from clopidogrel interaction, both with and without ritonavir), the “contribution of CYP2C8 to metabolism” value is given as “exceed 80%”. Further, the “effect of ritonavir on pharmacokinetics compared to pretreatment with placebo” value in series [5] is given as “did not cause significant changes”. In series [5] (statistically insignificant), the “trend of lower concentrations in the ritonavir phase than in the placebo phase” value is “–20%”. Further, in series [7], the “PBPK-predicted increase of AUC by clopidogrel” value was 1.9–2.8 fold and the “implied reduction in clearance by clopidogrel (PBPK prediction)” value is reported as 47–64%. The “prolongation of half‐life (t ½) by concomitant gemfibrozil” value in series [4] (humans) was 18 fold. The “increase of AUC by concomitant gemfibrozil” value in [4] (humans, during ritonavir coadministration) is on record as 11 fold. Also, the “fraction metabolized by CYP2C8” value in [4] (in the presence of the CYP3A4 inhibitor ritonavir) was above 0.9. Also, the “share of overall metabolism for which CYP3A4 is responsible” value in the series on CYP3A4 is given as “about 30%”.
`CCc1ccc(CCOc2ccc(CC3SC(=O)NC3=O)cc2)nc1` (centres unmarked) [pioglitazone]: the “increase of AUC of CYP2C8 substrate” value in series [4] is listed as “about 3 fold”.
